Results taken from ChEMBL document CHEMBL1138512, “A class of 2,4-bisanilinopyrimidine Aurora A inhibitors with unusually high selectivity against Aurora B” (J Med Chem, 2009).

Columns and labels:
[1] = molecular target: Serine/threonine-protein kinase PAK 3 (Homo sapiens) (UniProt O75914); experiment: Inhibition of PAK3 at 1 uM
[2] = molecular target: Tyrosine-protein kinase ABL1 (Homo sapiens) (UniProt P00519); experiment: Inhibition of ABL1 at 1 uM
[3] = molecular target: Serine/threonine-protein kinase Nek4 (Homo sapiens) (UniProt P51957); experiment: Inhibition of NEK4 at 1 uM
[4] = molecular target: Cytoplasmic tyrosine-protein kinase BMX (Homo sapiens) (UniProt P51813); experiment: Inhibition of BMX at 1 uM
[5] = molecular target: Vascular endothelial growth factor receptor 2 (Homo sapiens) (UniProt P35968); experiment: Inhibition of VEGFR2 at 1 uM
[6] = molecular target: Mitogen-activated protein kinase 14 (Homo sapiens) (UniProt Q16539); experiment: Inhibition of P38alpha at 1 uM
[7] = molecular target: Glycogen synthase kinase-3 beta (Homo sapiens) (UniProt P49841); experiment: Inhibition of GSK3-beta at 1 uM
[8] = molecular target: Macrophage colony-stimulating factor 1 receptor (Homo sapiens) (UniProt P07333); experiment: Inhibition of FMS at 1 uM
[9] = molecular target: Platelet-derived growth factor receptor alpha (Homo sapiens) (UniProt P16234); experiment: Inhibition of PDGFRA at 1 uM
[10] = molecular target: Serine/threonine-protein kinase PLK2 (Homo sapiens) (UniProt Q9NYY3); experiment: Inhibition of PLK2 at 1 uM
[11] = molecular target: High affinity nerve growth factor receptor (Homo sapiens) (UniProt P04629); experiment: Inhibition of TRKA at 1 uM
[12] = molecular target: Serine/threonine-protein kinase MRCK alpha (Homo sapiens) (UniProt Q5VT25); experiment: Inhibition of MRCKalpha at 1 uM
Sequence of Serine/threonine-protein kinase MRCK alpha (Homo sapiens) (Q5VT25 whole entry): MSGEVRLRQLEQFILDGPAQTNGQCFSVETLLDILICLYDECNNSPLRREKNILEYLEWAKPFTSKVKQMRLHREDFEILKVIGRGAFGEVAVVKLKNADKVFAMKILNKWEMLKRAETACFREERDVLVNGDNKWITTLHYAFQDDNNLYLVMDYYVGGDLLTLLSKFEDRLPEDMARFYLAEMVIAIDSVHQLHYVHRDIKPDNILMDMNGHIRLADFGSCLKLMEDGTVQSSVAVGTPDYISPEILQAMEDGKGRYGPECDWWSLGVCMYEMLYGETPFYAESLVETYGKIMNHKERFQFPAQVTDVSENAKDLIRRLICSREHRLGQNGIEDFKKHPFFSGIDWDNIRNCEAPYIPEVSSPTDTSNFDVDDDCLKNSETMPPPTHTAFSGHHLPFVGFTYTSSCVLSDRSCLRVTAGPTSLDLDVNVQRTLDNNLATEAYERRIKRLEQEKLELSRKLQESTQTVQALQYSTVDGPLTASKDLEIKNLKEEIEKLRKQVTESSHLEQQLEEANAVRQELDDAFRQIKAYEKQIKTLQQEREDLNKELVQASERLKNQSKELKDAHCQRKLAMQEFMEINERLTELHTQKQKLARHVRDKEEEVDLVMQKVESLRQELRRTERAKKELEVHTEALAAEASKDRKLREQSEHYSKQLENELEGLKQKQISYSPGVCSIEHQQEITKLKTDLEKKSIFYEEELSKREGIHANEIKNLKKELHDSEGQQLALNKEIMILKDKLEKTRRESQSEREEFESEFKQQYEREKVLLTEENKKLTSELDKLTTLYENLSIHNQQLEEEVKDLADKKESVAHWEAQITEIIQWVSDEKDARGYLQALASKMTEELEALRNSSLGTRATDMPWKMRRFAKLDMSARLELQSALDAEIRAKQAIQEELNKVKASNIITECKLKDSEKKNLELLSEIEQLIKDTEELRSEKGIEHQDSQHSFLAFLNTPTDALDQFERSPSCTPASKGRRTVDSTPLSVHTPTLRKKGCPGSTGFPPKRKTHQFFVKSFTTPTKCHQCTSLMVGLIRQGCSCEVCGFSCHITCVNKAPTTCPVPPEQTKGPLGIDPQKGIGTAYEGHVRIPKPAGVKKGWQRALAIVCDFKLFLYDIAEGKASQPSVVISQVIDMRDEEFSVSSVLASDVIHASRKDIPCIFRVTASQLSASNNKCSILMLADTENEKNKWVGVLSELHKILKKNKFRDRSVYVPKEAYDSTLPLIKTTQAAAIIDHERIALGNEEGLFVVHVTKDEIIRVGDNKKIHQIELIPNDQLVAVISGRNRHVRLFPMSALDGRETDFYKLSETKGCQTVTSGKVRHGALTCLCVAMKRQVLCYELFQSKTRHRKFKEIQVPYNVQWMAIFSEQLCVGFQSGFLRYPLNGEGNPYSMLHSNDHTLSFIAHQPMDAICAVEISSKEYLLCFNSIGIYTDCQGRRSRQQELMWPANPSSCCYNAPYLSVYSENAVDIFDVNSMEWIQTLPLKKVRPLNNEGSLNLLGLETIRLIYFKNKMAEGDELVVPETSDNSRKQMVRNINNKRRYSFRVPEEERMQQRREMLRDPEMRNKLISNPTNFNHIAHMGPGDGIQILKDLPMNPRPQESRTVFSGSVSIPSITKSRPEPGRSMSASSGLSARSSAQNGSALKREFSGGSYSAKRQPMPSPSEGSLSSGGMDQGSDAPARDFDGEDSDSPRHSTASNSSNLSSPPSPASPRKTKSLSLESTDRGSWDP

[13] = molecular target: Receptor tyrosine-protein kinase erbB-2 (Homo sapiens) (UniProt P04626); experiment: Inhibition of HER2 at 1 uM
Sequence of Receptor tyrosine-protein kinase erbB-2 (Homo sapiens) (P04626 whole entry): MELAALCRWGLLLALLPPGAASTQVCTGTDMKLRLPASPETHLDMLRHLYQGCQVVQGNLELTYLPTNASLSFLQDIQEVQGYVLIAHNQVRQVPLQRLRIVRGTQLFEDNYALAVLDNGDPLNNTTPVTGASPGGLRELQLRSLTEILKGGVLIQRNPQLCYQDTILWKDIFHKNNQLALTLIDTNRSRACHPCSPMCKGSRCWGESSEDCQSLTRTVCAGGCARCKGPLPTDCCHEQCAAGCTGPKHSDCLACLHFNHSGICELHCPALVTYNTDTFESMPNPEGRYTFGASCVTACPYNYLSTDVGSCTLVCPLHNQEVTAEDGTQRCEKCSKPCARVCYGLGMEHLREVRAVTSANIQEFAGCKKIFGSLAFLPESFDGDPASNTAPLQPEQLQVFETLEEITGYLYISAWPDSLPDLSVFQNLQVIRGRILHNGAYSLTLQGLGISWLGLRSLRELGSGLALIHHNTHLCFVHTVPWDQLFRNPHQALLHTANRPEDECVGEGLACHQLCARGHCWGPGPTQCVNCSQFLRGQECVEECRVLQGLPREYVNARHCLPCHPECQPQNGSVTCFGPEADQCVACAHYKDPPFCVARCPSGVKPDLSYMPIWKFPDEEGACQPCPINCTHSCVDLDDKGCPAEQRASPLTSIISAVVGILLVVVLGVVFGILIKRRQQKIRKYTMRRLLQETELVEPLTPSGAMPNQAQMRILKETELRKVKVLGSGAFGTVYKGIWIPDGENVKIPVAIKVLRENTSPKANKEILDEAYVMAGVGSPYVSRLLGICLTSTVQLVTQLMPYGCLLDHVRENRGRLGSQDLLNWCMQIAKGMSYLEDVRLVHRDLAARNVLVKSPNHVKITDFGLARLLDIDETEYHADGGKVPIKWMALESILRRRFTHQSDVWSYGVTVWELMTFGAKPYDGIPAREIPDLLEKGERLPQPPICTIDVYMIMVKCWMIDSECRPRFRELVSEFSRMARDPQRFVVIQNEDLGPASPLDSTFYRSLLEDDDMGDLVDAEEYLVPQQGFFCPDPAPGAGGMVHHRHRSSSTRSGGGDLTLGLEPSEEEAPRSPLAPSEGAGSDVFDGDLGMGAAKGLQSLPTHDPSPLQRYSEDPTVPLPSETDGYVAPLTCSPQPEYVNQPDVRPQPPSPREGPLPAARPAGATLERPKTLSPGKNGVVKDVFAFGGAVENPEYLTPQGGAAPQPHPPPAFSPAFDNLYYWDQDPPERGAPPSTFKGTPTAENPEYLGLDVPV

[14] = molecular target: Cyclin-dependent kinase 1/cyclin B1 (Homo sapiens) (UniProt P06493+P14635); experiment: Inhibition of CDK1/cyclin B at 1 uM
[15] = molecular target: Epidermal growth factor receptor (Homo sapiens) (UniProt P00533); experiment: Inhibition of ErbB1 at 1 uM
[16] = molecular target: cAMP-dependent protein kinase catalytic subunit alpha (Homo sapiens) (UniProt P17612); experiment: Inhibition of PRKACA at 1 uM
[17] = molecular target: Eukaryotic elongation factor 2 kinase (Homo sapiens) (UniProt O00418); experiment: Inhibition of EEF2K at 1 uM
Sequence of Eukaryotic elongation factor 2 kinase (Homo sapiens) (O00418 whole entry): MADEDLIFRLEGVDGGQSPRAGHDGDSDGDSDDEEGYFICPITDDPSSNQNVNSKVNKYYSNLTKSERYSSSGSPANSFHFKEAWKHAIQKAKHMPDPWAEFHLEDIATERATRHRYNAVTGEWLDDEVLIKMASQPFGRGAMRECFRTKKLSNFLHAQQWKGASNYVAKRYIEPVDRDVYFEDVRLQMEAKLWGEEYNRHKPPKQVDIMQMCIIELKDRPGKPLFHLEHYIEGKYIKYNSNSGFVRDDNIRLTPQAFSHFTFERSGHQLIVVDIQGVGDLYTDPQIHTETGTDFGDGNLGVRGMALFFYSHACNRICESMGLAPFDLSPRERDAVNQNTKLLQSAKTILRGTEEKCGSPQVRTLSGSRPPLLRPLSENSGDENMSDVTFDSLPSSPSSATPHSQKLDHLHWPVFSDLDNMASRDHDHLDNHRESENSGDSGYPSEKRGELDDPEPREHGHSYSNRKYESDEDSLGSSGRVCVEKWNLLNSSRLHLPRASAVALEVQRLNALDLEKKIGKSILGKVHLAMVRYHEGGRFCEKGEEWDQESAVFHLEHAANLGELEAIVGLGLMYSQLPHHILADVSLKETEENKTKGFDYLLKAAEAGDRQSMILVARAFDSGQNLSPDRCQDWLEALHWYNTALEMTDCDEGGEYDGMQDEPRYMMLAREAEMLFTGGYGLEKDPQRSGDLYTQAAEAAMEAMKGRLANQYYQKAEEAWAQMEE

[18] = molecular target: T1, Cyclin-dependent kinase 2 (Homo sapiens, UniProt P24941); experiment: Inhibition of CDK2/cyclin A at 1 uM
[19] = molecular target: Serine/threonine-protein kinase pim-1 (Homo sapiens) (UniProt P11309); experiment: Inhibition of PIM1 at 1 uM
[20] = molecular target: Aurora kinase B (Homo sapiens, UniProt Q96GD4); experiment: Inhibition of Aurora B at 1 uM
[21] = molecular target: Phosphorylase b kinase gamma catalytic chain, skeletal muscle/heart isoform (Homo sapiens) (UniProt Q16816); experiment: Inhibition of PHKG1 at 1 uM
[22] = molecular target: Serine/threonine-protein kinase Nek1 (Homo sapiens) (UniProt Q96PY6); experiment: Inhibition of NEK1 at 1 uM
[23] = molecular target: Inhibitor of nuclear factor kappa-B kinase subunit beta (Homo sapiens) (UniProt O14920); experiment: Inhibition of IKK-beta at 1 uM
[24] = molecular target: Protein kinase C alpha type (Homo sapiens) (UniProt P17252); experiment: Inhibition of PKCalpha at 1 uM
[25] = molecular target: Ephrin type-B receptor 1 (Homo sapiens) (UniProt P54762); experiment: Inhibition of EPHB1 at 1 uM
[26] = molecular target: Serine/threonine-protein kinase Chk2 (Homo sapiens) (UniProt O96017); experiment: Inhibition of CHK2 at 1 uM
[27] = molecular target: Serine/threonine-protein kinase mTOR (Homo sapiens) (UniProt P42345); experiment: Inhibition of mTOR at 1 uM
[28] = molecular target: Ephrin type-A receptor 1 (Homo sapiens) (UniProt P21709); experiment: Inhibition of EPHA1 at 1 uM
[29] = system: HT-29; experiment: Antiproliferative activity against human HT-29 cells after 4 days by celltiter assay; type: functional, cell-based; conditions: HT-29, 96 h
[30] = molecular target: Receptor-type tyrosine-protein kinase FLT3 (Homo sapiens) (UniProt P36888); experiment: Inhibition of FLT3 at 1 uM
[31] = system: HCT-116; experiment: Antiproliferative activity against human HCT116 cells after 4 days by celltiter assay; type: functional, cell-based; conditions: HCT-116, 96 h
[32] = molecular target: Mitogen-activated protein kinase kinase kinase kinase 2 (Homo sapiens) (UniProt Q12851); experiment: Inhibition of GCK at 1 uM
[33] = molecular target: Serine/threonine-protein kinase Nek6 (Homo sapiens) (UniProt Q9HC98); experiment: Inhibition of NEK6 at 1 uM
[34] = molecular target: Calcium/calmodulin-dependent protein kinase type 1D (Homo sapiens) (UniProt Q8IU85); experiment: Inhibition of CaMK1delta at 1 uM
[35] = molecular target: Proto-oncogene tyrosine-protein kinase Src (Homo sapiens) (UniProt P12931); experiment: Inhibition of SRC at 1 uM
[36] = molecular target: Serine/threonine-protein kinase PLK1 (Homo sapiens) (UniProt P53350); experiment: Inhibition of PLK1 at 1 uM
[37] = molecular target: Dual specificity protein kinase CLK1 (Homo sapiens) (UniProt P49759); experiment: Inhibition of CLK1 at 1 uM
[38] = molecular target: Tyrosine-protein kinase BTK (Homo sapiens) (UniProt Q06187); experiment: Inhibition of BTK at 1 uM
[39] = molecular target: G protein-coupled receptor kinase 4 (Homo sapiens) (UniProt P32298); experiment: Inhibition of GRK4 at 1 uM
[40] = molecular target: Aurora kinase A (Homo sapiens) (UniProt O14965); experiment: Inhibition of Aurora A at 1 uM
[41] = molecular target: Calcium/calmodulin-dependent protein kinase type II subunit alpha (Homo sapiens) (UniProt Q9UQM7); experiment: Inhibition of CaMK2alpha at 1 uM
[42] = molecular target: Serine/threonine-protein kinase Chk1 (Homo sapiens) (UniProt O14757); experiment: Inhibition of CHK1 at 1 uM
[43] = molecular target: Casein kinase I isoform alpha (Homo sapiens) (UniProt P48729); experiment: Inhibition of CK1alpha1 at 1 uM
[44] = molecular target: Serine/threonine-protein kinase B-raf (Homo sapiens) (UniProt P15056); experiment: Inhibition of BRAF at 1 uM
Sequence of Serine/threonine-protein kinase B-raf (Homo sapiens) (P15056 whole entry, canonical isoform): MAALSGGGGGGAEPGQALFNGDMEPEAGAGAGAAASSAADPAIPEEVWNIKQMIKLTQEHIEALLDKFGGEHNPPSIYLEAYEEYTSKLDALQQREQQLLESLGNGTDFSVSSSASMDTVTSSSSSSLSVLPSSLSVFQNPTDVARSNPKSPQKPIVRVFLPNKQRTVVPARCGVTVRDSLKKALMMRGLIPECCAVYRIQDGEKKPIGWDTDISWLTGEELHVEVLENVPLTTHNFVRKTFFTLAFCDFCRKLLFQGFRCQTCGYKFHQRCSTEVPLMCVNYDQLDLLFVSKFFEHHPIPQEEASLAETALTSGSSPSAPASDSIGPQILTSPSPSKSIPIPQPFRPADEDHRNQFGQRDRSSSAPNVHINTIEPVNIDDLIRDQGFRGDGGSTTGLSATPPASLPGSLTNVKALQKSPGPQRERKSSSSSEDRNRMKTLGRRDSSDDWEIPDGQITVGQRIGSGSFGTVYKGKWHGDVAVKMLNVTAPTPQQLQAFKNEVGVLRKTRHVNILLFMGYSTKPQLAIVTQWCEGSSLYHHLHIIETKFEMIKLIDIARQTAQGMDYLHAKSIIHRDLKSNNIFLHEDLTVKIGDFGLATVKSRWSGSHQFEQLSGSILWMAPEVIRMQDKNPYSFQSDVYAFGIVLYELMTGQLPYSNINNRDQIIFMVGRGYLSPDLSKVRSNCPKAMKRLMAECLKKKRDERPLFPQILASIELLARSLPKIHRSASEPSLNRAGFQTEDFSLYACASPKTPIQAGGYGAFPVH

[45] = molecular target: Casein kinase I isoform delta (Homo sapiens) (UniProt P48730); experiment: Inhibition of CK1delta at 1 uM
[46] = molecular target: 3-phosphoinositide-dependent protein kinase 1 (Homo sapiens) (UniProt O15530); experiment: Inhibition of PDK1 at 1 uM
[47] = molecular target: T1, Cyclin-dependent kinase 2; experiment: Inhibition of CDK2/cyclin A
[48] = molecular target: Insulin receptor (Homo sapiens) (UniProt P06213); experiment: Inhibition of INSR at 1 uM
[49] = molecular target: Tyrosine-protein kinase JAK2 (Homo sapiens) (UniProt O60674); experiment: Inhibition of JAK2 at 1 uM

Sequence of Serine/threonine-protein kinase PAK 3 (Homo sapiens) (O75914 whole entry, looked up): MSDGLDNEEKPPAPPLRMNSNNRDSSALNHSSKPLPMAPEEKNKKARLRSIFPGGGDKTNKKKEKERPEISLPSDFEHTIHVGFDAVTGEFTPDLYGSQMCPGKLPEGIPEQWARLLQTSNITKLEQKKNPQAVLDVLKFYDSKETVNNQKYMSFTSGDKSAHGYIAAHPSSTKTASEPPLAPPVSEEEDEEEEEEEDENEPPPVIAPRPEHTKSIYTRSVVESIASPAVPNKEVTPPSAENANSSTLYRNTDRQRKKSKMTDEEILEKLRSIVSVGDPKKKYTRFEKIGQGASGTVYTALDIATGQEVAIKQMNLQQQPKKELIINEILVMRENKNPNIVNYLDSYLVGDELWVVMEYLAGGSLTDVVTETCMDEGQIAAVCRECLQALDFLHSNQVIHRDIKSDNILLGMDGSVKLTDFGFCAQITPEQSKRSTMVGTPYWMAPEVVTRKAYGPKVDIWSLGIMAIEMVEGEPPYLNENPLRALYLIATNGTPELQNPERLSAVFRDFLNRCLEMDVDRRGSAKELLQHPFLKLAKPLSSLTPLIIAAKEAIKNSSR

An inhibition [1] of 4%, an inhibition [2] of 33% and an inhibition [3] of 11% were found for `CC(=O)N1CCN(C(=O)Cc2ccc(Nc3ncc(F)c(Nc4ccc(C(=O)Nc5ccccc5Cl)cc4)n3)cc2)CC1` in this work. It also gave an inhibition [4] of 43%, an inhibition [5] of 76% and an inhibition [6] of 28%. For the same compound, the inhibition [7] was 30%, the inhibition [8] was 79% and the inhibition [9] was 23%. It also gave an inhibition [10] of 12%, an inhibition [11] of 67% and an inhibition [12] of 11%. It also gave an inhibition [13] of 4%, an inhibition [14] of 15% and an inhibition [15] of 5%. It also gave an inhibition [16] of 7%, an inhibition [17] of 5% and an inhibition [18] of 15%. The inhibition [19] was 2%, the inhibition [20] was 59% and the inhibition [21] was 18%. It also gave an inhibition [22] of 29%, an inhibition [23] of 39% and an inhibition [24] of 15%. For the same compound, the inhibition [25] was 25%, the inhibition [26] was 12% and the inhibition [27] was 11%. It also gave an inhibition [28] of 34%, an IC50 [29] of 6.2 µM and an inhibition [30] of 91%. The IC50 [31] was 0.64 µM, the inhibition [32] was 10% and the inhibition [33] was 8%. It also gave an inhibition [34] of 18%, an inhibition [35] of 30% and an inhibition [36] of 3%. For the same compound, the inhibition [37] was 13%, the inhibition [38] was 46% and the inhibition [39] was -1%. For the same compound, the inhibition [40] was 103%, the inhibition [41] was 9% and the inhibition [42] was 14%. It also gave an inhibition [43] of 3%, an inhibition [44] of 7% and an inhibition [45] of 11%. The inhibition [46] was 19%, the IC50 [47] was > 16 µM and the inhibition [48] was 16%. The inhibition [49] was 78%.
